Measured values: ChEMBL document CHEMBL6114991, “Design, synthesis, and biological evaluation of novel quinoline carboxylic acid based styryl/alkyne hybrid molecule as a potent anti-adipogenic and antidyslipidemic agent via activation of Wnt/β-catenin pathway” (Eur J Med Chem, 2025)
Calls of active or inactive are those of the source. The calls are words filed in the database; no cut-off is given here.

Legend:
3T3-L1 [1] = assay: Inhibition of adipogenesis in mouse 3T3-L1 cells assessed as downregulation of FABP4 expression at 10 uM measured at upto 5 days by immunoblotting analysis; assay type: functional, cell-based; settings: time <= 5.0 day
3T3-L1 [2] = assay: Induction of cell cycle arrest in mouse 3T3-L1 cells assessed as reduction in cyclin D3 level at 10 uM incubated for 16 to 24 hrs by immunoblotting analysis; assay type: functional, cell-based; settings: time 16-24 hrs
3T3-L1 [3] = assay: […] of Wnt/beta-catenin signalling in mouse 3T3-L1 cells assessed as increase in beta-catenin level at 10 uM by immunoblotting analysis; assay type: cell-based
Syrian golden hamster [4] = assay: Anti-dyslipidemic activity in HFD-induced Golden Syrian hamster model assessed as decrease in eWAT accumulation at 100 mg/kg, po administered for 7 days; assay type: functional, organism-based; settings: Mesocricetus auratus, time 7.0 day
3T3-L1 [5] = assay: Anti-adipogenic activity in mouse 3T3-L1 cells assessed as reduction in lipid accumulation at 10 uM measured at upto 3 days; assay type: functional, cell-based; settings: time <= 3.0 day
3T3-L1 [6] = assay: Anti-adipogenic activity in mouse 3T3-L1 cells assessed as change in lipid content at 10 uM measured at 5 to 7 days; assay type: functional, cell-based; settings: time 5-7 day
3T3-L1 [7] = assay: Induction of cell cycle arrest in mouse 3T3-L1 cells assessed as reduction in CDK4 level at 10 uM incubated for 16 to 24 hrs by immunoblotting analysis; assay type: functional, cell-based; settings: time 16-24 hrs
3T3-L1 [8] = assay: Induction of cell cycle arrest in mouse 3T3-L1 cells assessed as reduction in CDK2 level at 10 uM incubated for 16 to 24 hrs by immunoblotting analysis; assay type: functional, cell-based; settings: time 16-24 hrs
3T3-L1 [9] = assay: Inhibition of adipogenesis in mouse 3T3-L1 cells assessed as downregulation of FABP4 expression at 10 uM measured at upto 7 days by immunoblotting analysis; assay type: functional, cell-based; settings: time <= 7.0 day
3T3-L1 [10] = assay: Anti-adipogenic activity in mouse 3T3-L1 cells assessed as reduction in lipid accumulation at 10 uM measured at upto 5 days; assay type: functional, cell-based; settings: time <= 5.0 day
3T3-L1 [11] = assay: Anti-adipogenic activity in mouse 3T3-L1 cells assessed as change in lipid content at 10 uM measured at 3 to 7 days; assay type: functional, cell-based; settings: time 3-7 day
Syrian golden hamster [12] = assay: Anti-dyslipidemic activity in HFD-induced Golden Syrian hamster model assessed as decrease in CEBPalpha level at 100 mg/kg, po administered for 7 days by Western blot analysis; assay type: functional, organism-based; settings: Mesocricetus auratus, time 7.0 day
[13] = Tmax in Golden Syrian hamster at 100 mg/kg, po measured upto 24 hrs by LC-MS/MS analysis; assay type: ADME, organism-based, Mesocricetus auratus; settings: in vivo
3T3-L1 [14] = assay: Anti-adipogenic activity in mouse 3T3-L1 cells assessed as increase in GSK3beta mRNA expression at 10 uM incubated for 16 to 24 hrs; assay type: functional, cell-based; settings: time 16-24 hrs
3T3-L1 [15] = assay: Inhibition of adipogenesis in mouse 3T3-L1 cells assessed as downregulation of FASN expression at 10 uM measured at upto 7 days by immunoblotting analysis; assay type: functional, cell-based; settings: time <= 7.0 day
3T3-L1 [16] = assay: Cytotoxicity against mouse 3T3-L1 cells assessed as cell viability upto 50 uM incubated for 48 hrs by MTT assay; assay type: toxicity, cell-based; settings: 3t3-l1, 48 h
3T3-L1 [17] = assay: Anti-adipogenic activity in mouse 3T3-L1 cells at 20 uM relative to control; assay type: functional; settings: time 72 hrs
3T3-L1 [18] = assay: Inhibition of adipogenesis in mouse 3T3-L1 cells assessed as downregulation of FABP4 expression at 10 uM measured at upto 3 days by immunoblotting analysis; assay type: functional, cell-based; settings: time <= 3.0 day
3T3-L1 [19] = assay: Inhibition of adipogenesis in mouse 3T3-L1 cells assessed as downregulation of FASN expression at 10 uM measured at upto 3 days by immunoblotting analysis; assay type: functional, cell-based; settings: time <= 3.0 day
3T3-L1 [20] = assay: Anti-adipogenic activity in mouse 3T3-L1 cells assessed as change in lipid content at 10 uM measured at 3 to 5 days; assay type: functional, cell-based; settings: time 3-5 day
3T3-L1 [21] = assay: Inhibition of adipogenesis in mouse 3T3-L1 cells assessed as downregulation of CEBPalpha expression at 10 uM measured at upto 3 days by immunoblotting analysis; assay type: functional, cell-based; settings: time <= 3.0 day
3T3-L1 [22] = assay: Inhibition of adipogenesis in mouse 3T3-L1 cells assessed as downregulation of PPARgamma expression at 10 uM measured at upto 7 days by immunoblotting analysis; assay type: functional, cell-based; settings: time <= 7.0 day
[23] = MRT in Golden Syrian hamster at 100 mg/kg, po measured upto 24 hrs by LC-MS/MS analysis; assay type: ADME, organism-based, Mesocricetus auratus; settings: in vivo
3T3-L1 [24] = assay: Anti-adipogenic activity in mouse 3T3-L1 cells assessed as reduction in lipid accumulation at 10 uM measured at upto 7 days; assay type: functional, cell-based; settings: time <= 7.0 day
[25] = Volume of distribution in Golden Syrian hamster at 100 mg/kg, po measured upto 24 hrs by LC-MS/MS analysis; assay type: ADME, organism-based, Mesocricetus auratus; settings: in vivo
[26] = Toxicity in Golden Syrian hamster assessed as reduction in TG level in serum at 100 mg/kg, po administered for 7 days; assay type: organism-based, Mesocricetus auratus; settings: in vivo, 168 h, time 7 day
[27] = Toxicity in Golden Syrian hamster assessed as reduction in liver weight at 100 mg/kg, po administered for 7 days; assay type: organism-based, Mesocricetus auratus; settings: in vivo, 168 h, time 7 day
3T3-L1 [28] = assay: Cytotoxicity against mouse 3T3-L1 cells assessed as cell viability at 10 uM incubated for 48 hrs by MTT assay; assay type: toxicity, cell-based; settings: 3t3-l1, 48 h
3T3-L1 [29] = assay: Induction of cell cycle arrest in mouse 3T3-L1 cells assessed as reduction in cyclin D1 level at 10 uM incubated for 16 to 24 hrs by immunoblotting analysis; assay type: functional, cell-based; settings: time 16-24 hrs
3T3-L1 [30] = assay: Inhibition of adipogenesis in mouse 3T3-L1 cells assessed as downregulation of PPARgamma expression at 10 uM measured at upto 3 days by immunoblotting analysis; assay type: functional, cell-based; settings: time <= 3.0 day
3T3-L1 [31] = assay: Cytotoxicity against mouse 3T3-L1 cells assessed as cell viability at 20 uM incubated for 48 hrs by MTT assay; assay type: toxicity, cell-based; settings: 3t3-l1, 48 h
3T3-L1 [32] = assay: Inhibition of adipogenesis in mouse 3T3-L1 cells assessed as downregulation of CEBPalpha expression at 10 uM measured at upto 5 days by immunoblotting analysis; assay type: functional, cell-based; settings: time <= 5.0 day
[33] = Toxicity in Golden Syrian hamster assessed as reduction in TC level in serum at 100 mg/kg, po administered for 7 days; assay type: organism-based, Mesocricetus auratus; settings: in vivo, 168 h, time 7 day
[34] = Toxicity in Golden Syrian hamster assessed as reduction in adipocyte hypertrophy at 100 mg/kg, po administered for 7 days; assay type: organism-based, Mesocricetus auratus; settings: in vivo, 168 h, time 7 day
3T3-L1 [35] = assay: Inhibition of adipogenesis in mouse 3T3-L1 cells assessed as downregulation of CEBPalpha expression at 10 uM measured at upto 7 days by immunoblotting analysis; assay type: functional, cell-based; settings: time <= 7.0 day
[36] = Cmax in Golden Syrian hamster at 100 mg/kg, po measured upto 24 hrs by LC-MS/MS analysis; assay type: ADME, organism-based, Mesocricetus auratus; settings: in vivo
Syrian golden hamster [37] = assay: Anti-dyslipidemic activity in HFD-induced Golden Syrian hamster model assessed as decrease in PPARgamma level at 100 mg/kg, po administered for 7 days by Western blot analysis; assay type: functional, organism-based; settings: Mesocricetus auratus, time 7.0 day
3T3-L1 [38] = assay: Inhibition of adipogenesis in mouse 3T3-L1 cells assessed as downregulation of FASN expression at 10 uM measured at upto 5 days by immunoblotting analysis; assay type: functional, cell-based; settings: time <= 5.0 day
3T3-L1 [39] = assay: Anti-adipogenic activity in mouse 3T3-L1 cells assessed as increase in GATA2 mRNA expression by measuring fold change at 10 uM incubated for 16 to 24 hrs; assay type: functional; settings: time 16-24 hrs
[40] = Toxicity in Golden Syrian hamster assessed as reduction in LDL level in serum at 100 mg/kg, po administered for 7 days; assay type: organism-based, Mesocricetus auratus; settings: in vivo, 168 h, time 7 day
3T3-L1 [41] = assay: […] of Wnt/beta-catenin signalling in mouse 3T3-L1 cells assessed as increase in GSK3beta level at 10 uM by immunoblotting analysis; assay type: cell-based

Cc1ccc(/C=C/c2ccc(-c3cc(C(=O)O)c4cc(F)ccc4n3)cc2)cc1
inhibition (3T3-L1 [1]): Active
Activity (3T3-L1 [2]): Active
inhibition (3T3-L1 [3]): Active
Activity (Syrian golden hamster [4]): Active
Activity (3T3-L1 [5]): Active
Activity (3T3-L1 [6]): Active
Activity (3T3-L1 [7]): Active
Activity (3T3-L1 [8]): Active
inhibition (3T3-L1 [9]): Active
Activity (3T3-L1 [10]): Active
Activity (3T3-L1 [11]): Active
Activity (Syrian golden hamster [12]): Active
Tmax [13]: 0.25 h
Activity (3T3-L1 [14]): Active
inhibition (3T3-L1 [15]): Active
Activity (3T3-L1 [16]): Non-toxic
Activity (3T3-L1 [17]): 64%
inhibition (3T3-L1 [18]): Active
inhibition (3T3-L1 [19]): Active
Activity (3T3-L1 [20]): Active
inhibition (3T3-L1 [21]): Active
inhibition (3T3-L1 [22]): Active
MRT [23]: 2.89 h
Activity (3T3-L1 [24]): Active
Vd [25]: 14.79 L/kg
Activity [26]: Non-toxic
Activity [27]: Non-toxic
Activity (3T3-L1 [28]): Non-toxic
Activity (3T3-L1 [29]): Active
inhibition (3T3-L1 [30]): Active
Activity (3T3-L1 [31]): Non-toxic
inhibition (3T3-L1 [32]): Active
Activity [33]: Non-toxic
Activity [34]: Non-toxic
inhibition (3T3-L1 [35]): Active
Cmax [36]: 17700 ng/mL
Activity (Syrian golden hamster [37]): Active
inhibition (3T3-L1 [38]): Active
fold change (FC) (3T3-L1 [39]): 10
Activity [40]: Non-toxic
inhibition (3T3-L1 [41]): Active
